Usually IC50 stands for the point on the concentration scale where inhibition reaches its midpoint.

We go through 14 compounds from US12612410B2 (CHILDREN'S HOSPITAL MEDICAL CENTER, priority 2020, dated 2026).

One assay addresses T1, FLT3 (Homo sapiens, UniProt P36888).
T1 sequence (P36888 27-993): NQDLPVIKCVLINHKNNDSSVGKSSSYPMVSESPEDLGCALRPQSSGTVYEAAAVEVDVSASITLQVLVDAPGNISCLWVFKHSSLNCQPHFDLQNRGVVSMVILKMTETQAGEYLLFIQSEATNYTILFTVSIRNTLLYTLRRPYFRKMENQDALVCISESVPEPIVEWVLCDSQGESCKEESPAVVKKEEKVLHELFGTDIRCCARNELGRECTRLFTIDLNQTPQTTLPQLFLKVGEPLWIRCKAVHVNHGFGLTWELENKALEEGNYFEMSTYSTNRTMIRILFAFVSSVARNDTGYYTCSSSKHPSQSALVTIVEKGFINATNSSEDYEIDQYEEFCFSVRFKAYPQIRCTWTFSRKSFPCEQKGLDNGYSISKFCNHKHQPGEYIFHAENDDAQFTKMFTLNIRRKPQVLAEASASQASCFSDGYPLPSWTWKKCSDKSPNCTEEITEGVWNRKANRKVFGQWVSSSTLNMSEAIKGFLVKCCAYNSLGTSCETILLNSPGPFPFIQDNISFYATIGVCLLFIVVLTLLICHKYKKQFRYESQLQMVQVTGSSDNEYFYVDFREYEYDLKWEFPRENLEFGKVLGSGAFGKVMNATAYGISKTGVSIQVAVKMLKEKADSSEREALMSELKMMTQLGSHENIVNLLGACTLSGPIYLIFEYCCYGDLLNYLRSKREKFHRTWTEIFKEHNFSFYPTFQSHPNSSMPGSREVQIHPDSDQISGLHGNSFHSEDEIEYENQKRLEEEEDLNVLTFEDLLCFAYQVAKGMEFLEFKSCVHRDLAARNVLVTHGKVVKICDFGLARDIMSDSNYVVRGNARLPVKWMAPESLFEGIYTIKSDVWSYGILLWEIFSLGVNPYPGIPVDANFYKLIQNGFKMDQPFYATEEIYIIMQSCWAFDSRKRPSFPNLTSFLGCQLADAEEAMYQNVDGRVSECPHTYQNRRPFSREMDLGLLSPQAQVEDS
The experiment in a line: RBC HotSpot Kinase Assay, FLT3. Type of assay: biochemical. Details: purchased Reaction Biology (RBC), HotSpot kinase assay. Conditions: isolated kinase, 33P-ATP. In a few lines: (§1)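 Read-out was P81 filter binding of 33P incorporated into substrate by isolated kinase during a 2 h room-temperature reaction. Compound was preincubated with enzyme for 20 min at room temperature; buffer was Hepes pH 7.5 with Mg2+, EGTA, Brij35 and 1% DMSO.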

The target in the next assay is T2, IRAK1 (Homo sapiens, UniProt P51617).
T2 construct: purchased Reaction Biology (RBC), HotSpot kinase assay
As to the kind of experiment: RBC HotSpot Kinase Assay, IRAK1. It is filed as biochemical. To be noted: isolated kinase, 33P-ATP. In a few lines: as §1

SMILES strings stand for the structures.

T2 sequence (P51617 whole entry): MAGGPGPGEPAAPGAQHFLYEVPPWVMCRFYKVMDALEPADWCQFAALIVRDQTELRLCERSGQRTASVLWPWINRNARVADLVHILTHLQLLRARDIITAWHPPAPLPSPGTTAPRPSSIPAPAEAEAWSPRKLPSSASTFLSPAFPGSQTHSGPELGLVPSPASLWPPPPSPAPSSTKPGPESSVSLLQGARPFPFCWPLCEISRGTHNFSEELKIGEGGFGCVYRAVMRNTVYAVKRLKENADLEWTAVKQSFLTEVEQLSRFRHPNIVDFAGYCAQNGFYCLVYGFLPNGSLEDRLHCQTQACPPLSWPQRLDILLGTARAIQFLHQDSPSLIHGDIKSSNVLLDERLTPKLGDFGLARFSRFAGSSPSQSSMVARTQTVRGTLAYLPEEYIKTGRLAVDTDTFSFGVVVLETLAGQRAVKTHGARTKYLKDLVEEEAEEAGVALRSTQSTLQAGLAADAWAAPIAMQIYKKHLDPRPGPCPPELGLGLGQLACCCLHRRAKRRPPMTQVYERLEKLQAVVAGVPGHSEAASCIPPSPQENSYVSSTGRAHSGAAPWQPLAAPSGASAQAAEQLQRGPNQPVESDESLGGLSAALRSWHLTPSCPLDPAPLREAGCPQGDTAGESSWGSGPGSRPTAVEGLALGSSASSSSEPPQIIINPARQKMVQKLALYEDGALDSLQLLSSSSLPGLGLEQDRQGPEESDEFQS

For `CC(O)(c1cn2c(-c3cccc(N[C@H]4CNC[C@@H]4F)n3)cnc2cn1)C(F)(F)F` (single isomer, unassigned) [Compound 77], the IC50 was determined as 0.9 nM on FLT3 and 237 nM on IRAK1.

As for `CC(O)(c1cn2c(-c3cccc(N[C@H]4CNC[C@@H]4F)n3)cnc2cn1)C(F)(F)F` (single isomer, unassigned) [Compound 78], the IC50 against FLT3 was under 0.5 nM; against IRAK1, 66 nM.

`CC(O)(c1cn2c(-c3cccc(N[C@H]4CNCC[C@@H]4F)n3)cnc2cn1)C(F)(F)F` (single isomer, unassigned) [Compound 80]: the IC50 against FLT3 is 0.6 nM; on IRAK1, 64 nM.

Take `CC(O)(c1cn2c(-c3cccc(N[C@@H]4CCCNC4)n3)cnc2cn1)C(F)(F)F` (single isomer, unassigned) [Compound 81]: the figures for the IC50 on FLT3 and on IRAK1 were under 0.5 nM and 31 nM, respectively.

As to `CC(O)(c1cn2c(-c3cccc(N[C@H]4CNCC[C@@H]4F)n3)cnc2cn1)C(F)(F)F` (single isomer, unassigned) [Compound 82], the IC50 on FLT3 was under 0.5 nM; against IRAK1, 16 nM.

On to `CC1(c2cn3c(-c4cccc(N[C@H]5CNC[C@@H]5F)n4)cnc3cn2)CC1` [Compound 1, N-((3S,4S)-4-fluoropyrrolidin-3-yl)-6-(6-(1-methylcyclopropyl)imidazo[1,2-a]pyrazin-3-yl)pyridin-2-amine], for which the IC50 at FLT3 worked out at 0.6 nM; against IRAK1, 63 nM.

Regarding `CC1(c2cn3c(-c4cccc(N[C@@H]5CCNC5)n4)cnc3cn2)CC1` [Compound 3, (R)-6-(6-(1-methylcyclopropyl)imidazo[1,2-a]pyrazin-3-yl)-N-(pyrrolidin-3-yl)pyridin-2-amine], the values for the 50% inhibitory concentration (IC50) against FLT3 and against IRAK1 were 0.7 nM and 88 nM, respectively.

With `CC1(c2cn3c(-c4cccc(N[C@H]5CNCC56CC6)n4)cnc3cn2)CC1` [Compound 5, (R)-N-(6-(6-(1-methylcyclopropyl)imidazo[1,2-a]pyrazin-3-yl)pyridin-2-yl)-5-azaspiro[2.4]heptan-7-amine], the figures for the IC50 against FLT3 and at IRAK1 were under 0.5 nM and 114 nM, respectively.

For the compound `FC(F)(F)C1(c2cn3c(-c4cccc(N[C@@H]5CCNC5)n4)cnc3cn2)CC1` [Compound 10, (R)-N-(pyrrolidin-3-yl)-6-(6-(1-(trifluoromethyl)cyclopropyl)imidazo[1,2-a]pyrazin-3-yl)pyridin-2-amine], the IC50 against FLT3 is under 0.5 nM; against IRAK1, 155 nM.

Regarding `FC(F)c1cn2c(-c3cccc(N[C@H]4CNC[C@@H]4F)n3)cnc2cn1` [Compound 16, 6-(6-(difluoromethyl)imidazo[1,2-a]pyrazin-3-yl)-N-((3S,4S)-4-fluoropyrrolidin-3-yl)pyridin-2-amine], the IC50 against FLT3 was under 0.5 nM; at IRAK1, 60 nM.

On to `FC(F)c1cn2c(-c3cccc(N[C@H]4CNCC[C@@H]4F)n3)cnc2cn1` [Compound 25, 6-(6-(difluoromethyl)imidazo[1,2-a]pyrazin-3-yl)-N-((3S,4S)-4-fluoropiperidin-3-yl)pyridin-2-amine], for which the IC50 against FLT3 was under 0.5 nM; on IRAK1 it was 144 nM.

Turning to `CC(C)(O)c1cn2c(-c3cccc(N[C@@H]4CCCNC4)n3)cnc2cn1` [Compound 30, (R)-2-(3-(6-(piperidin-3-ylamino)pyridin-2-yl)imidazo[1,2-a]pyrazin-6-yl)propan-2-ol], the IC50 was under 0.5 nM against FLT3 and 58 nM at IRAK1.

For the compound `CC(C)(O)c1cn2c(-c3cccc(N[C@H]4CNCC[C@@H]4F)n3)cnc2cn1` [Compound 31, 2-(3-(6-(((3S,4S)-4-fluoropiperidin-3-yl)amino)pyridin-2-yl)imidazo[1,2-a]pyrazin-6-yl)propan-2-ol], the IC50 on FLT3 is under 0.5 nM; against IRAK1, 23 nM.

For the compound `CC(C)(O)c1cn2c(-c3nc(N[C@H]4CNC[C@@H]4F)c(F)cc3F)cnc2cn1` [Compound 33, 2-(3-(3,5-difluoro-6-(((3S,4S)-4-fluoropyrrolidin-3-yl)amino)pyridin-2-yl)imidazo[1,2-a]pyrazin-6-yl)propan-2-ol], the IC50 worked out at 0.6 nM on FLT3 and 61 nM against IRAK1.
